The source made the active and inactive calls. The rule behind the calls is not given here.
Legend:
[1] = Antioxidant activity assessed as peroxynitrite scavenging activity at 1 to 10 uM by DHR 123 assay; assay type: functional
[2] = Antioxidant activity assessed as ROS scavenging activity at 1 to 10 uM by DCFDA assay; assay type: functional
Mus musculus [3] = assay: Antioxidant activity in melanin-possessing hairless mouse assessed as inhibition of UVB-induced ROS generation in skin homogenate compound treated topically to dorsal skin once a day for 21 days concomitantly irradiated with UV-B on alternate days from day 2 post-treatment by DCFDA assay; assay type: functional, organism-based
Mus musculus [4] = assay: (§1) Antioxidant activity in UVB-irradiated melanin-possessing hairless mouse assessed as inhibition of nuclear translocation of p-p65 NF-kappaB Ser 536 in skin homogenate at 2 to 10 uM treated topically to dorsal skin once a day for 21 days concomitantly irradiated with UV-B on alternate days from day 2 post-treatment by Western blot method; assay type: functional, organism-based
Mus musculus [5] = assay: as §1, with “NF-kappaB-mediated iNOS expression” for “nuclear translocation of p-p65 NF-kappaB Ser 536”; assay type: functional, organism-based
B16-F10 [6] = assay: Inhibition of oxidative stress in mouse B16F10 cells assessed as SIN-1-induced ROS generation pretreated for 2 hrs followed by washout before SIN-1 challenge; assay type: functional, cell-based
Mus musculus [7] = assay: as §1, with “AKT phosphorylation at Thr 308 and Ser473 residues” for “nuclear translocation of p-p65 NF-kappaB Ser 536”; assay type: functional, organism-based
Mus musculus [8] = assay: as §1, with “p65” for “nuclear translocation of p-p65”, “phosphorylation at Ser536 residue” for “Ser 536”; assay type: functional, organism-based
Mus musculus [9] = assay: as §1, with “AKT-mediated IKKalphabeta phosphorylation at Ser176/180 residues” for “nuclear translocation of p-p65 NF-kappaB Ser 536”; assay type: functional, organism-based
Mus musculus [10] = assay: as §1, with “effect on GSH/GSSG ratio” for “inhibition of nuclear translocation of p-p65 NF-kappaB Ser 536”, “o-phthalaldehyde assay” for “Western blot method”; assay type: functional, organism-based
Mus musculus [11] = assay: Antioxidant activity in melanin-possessing hairless mouse assessed as inhibition of UVB-induced peroxynitrite generation in skin homogenate compound treated topically to dorsal skin once a day for 21 days concomitantly irradiated with UV-B on alternate days from day 2 post-treatment by DHR 123 assay; assay type: functional, organism-based
B16-F10 [12] = assay: Inhibition of oxidative stress in mouse B16F10 cells assessed as SIN-1-induced peroxynitrite generation pretreated for 2 hrs followed by washout before SIN-1 challenge; assay type: functional, cell-based
Mus musculus [13] = assay: as §1, with “NF-kappaB-mediated COX-2 expression” for “nuclear translocation of p-p65 NF-kappaB Ser 536”; assay type: functional, organism-based

SMILES	Activity [1]	Activity [2]	inhibition (Mus musculus [3])	inhibition (Mus musculus [4])	inhibition (Mus musculus [5])	inhibition (B16-F10 [6])	inhibition (Mus musculus [7])	inhibition (Mus musculus [8])	inhibition (Mus musculus [9])	Activity (Mus musculus [10])	inhibition (Mus musculus [11])	inhibition (B16-F10 [12])	inhibition (Mus musculus [13])
CC(C)(S)[C@@H](N)C(=O)O	Active												
Cc1c(C)c2c(c(C)c1O)CCC(C)(C(=O)O)O2 (stereo not given)		Active											
COc1cc(C2Nc3cc(Cl)ccc3S2)cc(OC)c1O (stereo not given)	Active	Active	Dose-dependent effect	Active	Active	Dose-dependent effect	Active	Active	Active	inactive	Dose-dependent effect	Dose-dependent effect	Active

Source: ChEMBL document CHEMBL3124782, “MHY884, a newly synthesized tyrosinase inhibitor, suppresses UVB-induced activation of NF-κB signaling pathway through the downregulation of oxidative stress” (Bioorg Med Chem Lett, 2014)
